In general, IC50 refers to the concentration needed to halve the response being measured.

Series [1] is described as follows: Particle size of nucleic acid lipid particles (Luc2-siRNA). The conditions noted are these: compound/DSPC/cholesterol/DMG-PEG2000 50/10/38.5/1.5. The series is classed as physicochemical. In outline: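 Particle size was read by ELS-Z2 light scattering on nucleic acid lipid particles after dialysis against PBS. These were made by micromixing Luc2-siRNA (19.7 μmol/L, pH 4 acetate) with ethanolic lipids (test lipid/DSPC/cholesterol/DMG-PEG2000 50/10/38.5/1.5, 20 mmol/L) at 3:1 water:oil, siRNA/lipid 339 mol/mol.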

Series [2] can be described thus: Encapsulation rate of siRNA in nucleic acid lipid particles (Luc2-siRNA). The format is physicochemical. The conditions noted are these: compound/DSPC/cholesterol/DMG-PEG2000 50/10/38.5/1.5. In outline: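 Encapsulation rate was calculated as (total − outer-phase siRNA)/total ×100. Total siRNA was quantified spectrophotometrically after lipid-dissolving ethanol precipitation, and unencapsulated siRNA by RiboGreen in TE (ex 485/em 535 nm). The particles were test lipid/DSPC/cholesterol/DMG-PEG2000 at 50/10/38.5/1.5, formed by microfluidic mixing with Luc2-siRNA at pH 4 and dialyzed against PBS.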

Series [3] relates to DMS273 cells constantly expressing Luc. Nature of the series: Target reporter protein (Luc) knockdown in cell, reporter protein assay. The series is classed as cell-based. The settings on record: Homo sapiens, DMS-273; Luc2-siRNA lipid particles using the compound; siRNA 0.1 to 100 nmol/L; concentration at which Luc expression is knocked down to 50%; read-out: IC50. In outline: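 Nucleic acid lipid particles added at final 0.1 to 100 nmol/L to DMS273 human SCLC cells stably expressing Luc2, 24 hr exposure then 24 hr further culture after medium change. Luc quantified by Steady Glo luminescence after viable cell count; knockdown efficiency calculated and IC50 taken as concentration giving 50% Luc reduction.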

Series [4] has as its system Factor VII (FVII) protein. Nature of the series: Measurement of Factor VII (FVII) protein in mouse plasma after FVII-siRNA lipid particles. The conditions noted are these: 0.1 mg/kg caudal vein, plasma 24 hours after administration, PBS group = 100%. The series is classed as in vivo, C57BL6/J mice. In outline:
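C57BL6/J mice (n=3) received FVII-siRNA nucleic acid lipid particles at 0.1 mg/kg into the tail vein; controls got PBS. Each value is the percentage of the PBS-group FVII level.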

Series [5] can be described thus: Particle size of nucleic acid lipid particles (FVII-siRNA). The series is classed as physicochemical. The procedure: The compounds described in Table 2, L-α-distearoylphosphatidylcholine (trade name: COATSOME® MC-8080; NOF corporation), cholesterol (trade name: Choesterol HP; NIPPON FINE CHEMICAL CO., LTD.), and 1,2-dimyristoyl-rac-glycero-3-(methylpolyoxyethylene 2000) (hereinafter, called DMG-PEG2000) (trade name: SUNBRIGHT® GM-020; NOF corporation) were dissolved in ethanol at a molar ratio of 50/10/38.5/1.5 such that the total lipid concentration became 20 mmol/L, thereby obtaining an oil phase.
An aqueous nucleic acid solution obtained by dissolving 5 mg of Luc2-siRNA having the sequence described in Biomacromolecules (2013) 14, p. 3905 in 1 mL of sterile water was diluted with 10 mmol/L acetate buffer having a pH 4 such that the nucleic acid concentration became 19.7 μmol/L, thereby obtaining a water phase. Then, the water phase and the oil phase were mixed together by a micromixer (see JP5288254B) using a syringe pump such that the volume ratio of water phase:oil phase became 3:1 (final ratio of siRNA/lipid=339 (mol/mol)), and the mixed solution was diluted 2× with PBS, thereby obtaining a dispersion liquid of nucleic acid lipid particles. The dispersion liquid was dialyzed (Slide-A-Lyzer G2, MWCO: 10 kD, Thermo Fisher Scientific) using a phosphate buffered saline such that ethanol was removed, thereby obtaining nucleic acid lipid particles.
The particle size of the nucleic acid lipid particles was measured by the same method as that in <Preparation of lipid particles>.
(§1) The Factor VII (FVII) protein was measured according to the method described in Nature Biotechnology (2010) 28, 172-176. C57BL6/J mice were randomly grouped (n=3). A dispersion liquid of nucleic acid lipid particles was prepared by the same method as that in <Preparation of nucleic acid lipid particles>, except that FVII-siRNA having the sequence described in Molecular Therapy (2009) 17, p. 878 was used instead of Luc-siRNA. The dispersion liquid was administered to the caudal vein of the mice at a dosage of 0.1 mg/kg. For comparison, PBS at the same volume was administered to the caudal vein of the mice. Twenty four hours after the administration, blood was collected from the caudal vena cava, thereby obtaining plasma. The amount of FVII protein was quantified using the obtained plasma and a Biophen FVII assay kit (Aniara).

The nature of series [6]: Nucleic acid encapsulation rate of nucleic acid lipid particles (FVII-siRNA). The format is physicochemical. The procedure: A 3 mol/L aqueous sodium acetate solution (30 μL) and 9 μL of glycogen were added to 60 μL of the lipid particles retaining nucleic acids, and then 1.5 mL of ethanol was added thereto such that only the nucleic acids were precipitated while the lipid was dissolved. Then, the supernatant was removed by centrifugation. After the precipitates were air-dried for 15 minutes or longer, water was added thereto such that the precipitates were redissolved, and the concentration thereof was measured using Nanodrop NF1000 (Thermo Fisher Scientific), thereby quantifying the total nucleic acid concentration.
The nucleic acid concentration was quantified using a Quant-iT RiboGreen RNA Assay Kit (Thermo Fisher Scientific) according to the protocol. First, a 20×TE buffer included in the above kit was diluted with water, thereby obtaining a 1×TE buffer. TE represents Tris/EDTA (ethylenediaminetetraacetic acid). In order to quantify only the nucleic acid in the outer water phase, the dispersion liquid of lipid particles retaining nucleic acids was diluted 10,000× with the 1×TE buffer.
The 10,000× diluted dispersion liquid of lipid particles (100 μL) was put in a 96-well plate, then 100 μL of a RiboGreen reagent (reagent included in the Quanti-iT Ribogreen RNA Assay Kit described above) diluted 2000× with the 1×TE buffer was added to a sample, and fluorescence (excitation wavelength: 485 nm, fluorescence wavelength: 535 nm) was measured using a plate reader Infinit EF200 (TECAN), thereby quantifying the nucleic acid concentration in the outer water phase.
By using the total nucleic acid concentration obtained through the above steps and the quantified nucleic acid concentration in the outer water phase, the nucleic acid encapsulation rate of the nucleic acid lipid particles was calculated according to the following Equation. Nucleic acid encapsulation rate (%)=(total nucleic acid concentration−nucleic acid concentration in outer water phase)/total nucleic acid concentration×100 The results are shown in Table 2.
as §1

`CCCCC/C=C\C/C=C\CCCCCCCCC(CCCCCCCC/C=C\C/C=C\CCCCC)OC(=O)OCCN(CCCCC)CCN(C)C` [Example 40, 2-((2-(Dimethylamino)ethyl)(pentyl)amino)ethyl((6Z,9Z,28Z,31Z)-heptatriaconta-6,9,28,31-tetraen-19-yl)carbonate]: the “Particle size (nm)” value in series [1] worked out at 73.7 nm; in series [5], 66.6 nm. Further, the “Nucleic acid encapsulation rate” value in series [2] and in series [6] was 75% in each case. In addition, the IC50 in series [3] amounted to 15 nM. Further, the “Relative amount of FVII protein (%)” value in series [4] is 3%.

In the case of `CCCCCCCC/C=C\CCCCCCCC(=O)OCCCCCCC(CCCCCCOC(=O)CCCCCCC/C=C\CCCCCCCC)OC(=O)OCCN(CCCCCC)CCN(C)C` [Example 43], the “Particle size (nm)” value in series [1] was found to be 74.5 nm; in series [5] it was 75.3 nm. The figures for the “Nucleic acid encapsulation rate” value in series [2] and in series [6] were 78% and 87%, respectively. The IC50 in series [3] turned out to be 19 nM. In addition, the “Relative amount of FVII protein (%)” value in series [4] was found to be 11%.

Regarding `CCCCC/C=C\C/C=C\CCCCCCCC(=O)OCCCCCCC(CCCCCCOC(=O)CCCCCCC/C=C\C/C=C\CCCCC)OC(=O)OCCN(CC)CCN(CC)CC` [Example 45, 7-(((2-((2-(Diethylamino)ethyl)(ethyl)amino)ethoxy)carbonyl)oxy)tridecane-1,13-diyl(9Z,9′Z,12Z,12′Z)-bis(octadeca-9,12-dienoate)], the “Particle size (nm)” value came to 71.7 nm in series [1] and 71.5 nm in series [5]. For the same compound, the entries for the “Nucleic acid encapsulation rate” value in series [2] and in series [6] were 76% and 79%, respectively. The IC50 in series [3] worked out at 22 nM. The “Relative amount of FVII protein (%)” value in series [4] is given as 16%.

Take `CCCCCC/C=C\CCCCCCCC(=O)OCCCCCCC(CCCCCCOC(=O)CCCCCCC/C=C\CCCCCC)OC(=O)OCCN(CC)CCN(CC)CC` [Example 46, 7-(((2-((2-(Diethylamino)ethyl)(ethyl)amino)ethoxy)carbonyl)oxy)tridecane-1,13-diyl(9Z,9′Z)-bis(hexadec-9-enoate)]: the “Particle size (nm)” value in series [1] was found to be 71 nm; in series [5], 68.4 nm. Moreover, the “Nucleic acid encapsulation rate” value in series [2] stood at 80%; in series [6] it was 84%. Further, in series [3], the IC50 amounted to 17 nM. Further, the “Relative amount of FVII protein (%)” value in series [4] amounted to 18%.

As to `CCCC/C=C\CCCCCCCC(=O)OCCCCCCC(CCCCCCOC(=O)CCCCCCC/C=C\CCCC)OC(=O)OCCN(CC)CCN(CC)CC` [Example 47, 7-(((2-((2-(Diethylamino)ethyl)(ethyl)amino)ethoxy)carbonyl)oxy)tridecane-1,13-diyl(9Z,9′Z)-bis(tetradec-9-enoate)], the “Particle size (nm)” value is listed as 72.3 nm in series [1] and 79.4 nm in series [5]. Moreover, the “Nucleic acid encapsulation rate” value in series [2] was found to be 74%; in series [6], 82%. Besides, the IC50 in series [3] is 19 nM. In addition, in series [4], the “Relative amount of FVII protein (%)” value is recorded as 11%.

For `CCCCCCCCCCCCC(CCCCCCCCC(=O)OCC(CCCC)CCCCCC)OC(=O)OCCN(CC)CCN(CC)CC` (stereo not drawn) [Example 50, 2-Butyloctyl 12-dodecyl-3,6-diethyl-10-oxo-9,11-dioxa-3,6-diazahenicosan-21-oate], the “Particle size (nm)” value amounted to 65.6 nm in series [1] and 65.4 nm in series [5]. Moreover, the figures for the “Nucleic acid encapsulation rate” value in series [2] and in series [6] were 79% and 84%, respectively. Besides, in series [3], the IC50 is 13 nM. The “Relative amount of FVII protein (%)” value in series [4] amounted to 11%.

Take `CCCCC/C=C\C/C=C\CCCCCCCCC(CCCCCCCC/C=C\C/C=C\CCCCC)OC(=O)OCCN(CCN(CC)CC)Cc1ccccc1` [Example 51, 2-(Benzyl(2-(diethylamino)ethyl)amino)ethyl((6Z,9Z,28Z,31Z)-heptatriaconta-6,9,28,31-tetraen-19-yl)carbonate]: the “Particle size (nm)” value in series [1] was found to be 69 nm; in series [5], 71 nm. The “Nucleic acid encapsulation rate” value in series [2] is 76%; in series [6], 84%. Moreover, in series [3], the IC50 stood at 37 nM. Further, the “Relative amount of FVII protein (%)” value in series [4] was 19%.

For `CCCCC/C=C\C/C=C\CCCCCCCCC(CCCCCCCC/C=C\C/C=C\CCCCC)OC(=O)OCCN(CCCCCCCC)CCN(C)C` [Example 52, 2-((2-(Dimethylamino)ethyl)(octyl)amino)ethyl((6Z,9Z,28Z,31Z)-heptatriaconta-6,9,28,31-tetraen-19-yl)carbonate], the “Particle size (nm)” value in series [1] was determined as 79.9 nm; in series [5], 73.1 nm. For the same compound, the “Nucleic acid encapsulation rate” value in series [2] is 80%; in series [6], 83%. Further, the IC50 in series [3] was found to be 27 nM. The “Relative amount of FVII protein (%)” value in series [4] was found to be 19%.

For `CCCCCCCCCCCCC(CCCCCCCCC(=O)OCC(CCCC)CCCCCC)OC(=O)OCCN(CCN(CC)CC)C(C)C` (stereo not drawn) [Example 61, 2-Butyloctyl 12-dodecyl-3-ethyl-6-isopropyl-10-oxo-9,11-dioxa-3,6-diazahenicosan-21-oate], the figures for the “Particle size (nm)” value in series [1] and in series [5] were 60.9 nm and 67.7 nm, respectively. Moreover, the “Nucleic acid encapsulation rate” value worked out at 75% in series [2] and 78% in series [6]. Moreover, the IC50 in series [3] was found to be 7 nM. Moreover, the “Relative amount of FVII protein (%)” value in series [4] was found to be 8%.

For the compound `CCCCC/C=C\C/C=C\CCCCCCCCC(CCCCCCCC/C=C\C/C=C\CCCCC)OC(=O)OCCN(CCC)CCN(C)C(C)C` [Example 64], the “Particle size (nm)” value in series [1] stood at 61.5 nm; in series [5] it was 65.7 nm. In addition, the “Nucleic acid encapsulation rate” value in series [2] turned out to be 75%; in series [6], 86%. Moreover, the IC50 in series [3] is 5 nM. The “Relative amount of FVII protein (%)” value in series [4] was determined as 10%.

For `CCCCCCCCCCC(CCCCCCCCCCC(=O)OCC(CCCC)CCCCCC)OC(=O)OCCN(CC)CCN(CC)CC` (stereo not drawn) [Example 66, 2-Butyloctyl 12-decyl-3,6-diethyl-10-oxo-9,11-dioxa-3,6-diazatricosan-23-oate], the “Particle size (nm)” value came to 69.8 nm in series [1] and 85.4 nm in series [5]. The “Nucleic acid encapsulation rate” value in series [2] stood at 73%; in series [6] it was 98%. For the same compound, the IC50 in series [3] was 28 nM. For the same compound, the “Relative amount of FVII protein (%)” value in series [4] stood at 17%.

(Values after patent publication US12370143B2, “Compound or salt thereof and lipid particles” (FUJIFILM Corporation, priority 2018, dated 2025).)
